Tests used:
[1] = compound: CCOc1cc2ncc(C#N)c(Nc3ccc(OCc4ccccn4)c(Cl)c3)c2cc1NC(=O)/C=C/CN(C)C [Neratinib/HKI272]; experiment: increase in dead-cell fraction, 72 h; higher = more death;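 also: breast cancer cell lines in 384-well plates, stained with Hoechst plus LIVE/DEAD far red dye and imaged, cells above an LDR intensity threshold counted dead, Hoechst-negative corpses included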
[2] = compound: CCc1cnn2c(NCc3ccc[n+]([O-])c3)cc(N3CCCC[C@H]3CCO)nc12; experiment: as above
[3] = compound: CC(=O)c1c(C)c2cnc(Nc3ccc(N4CCNCC4)cn3)nc2n(C2CCCC2)c1=O; experiment: as above
[4] = compound: CN(C)C(=O)c1cc2cnc(Nc3ccc(N4CCNCC4)cn3)nc2n1C1CCCC1 [LEE011/Ribociclib]; experiment: as above
[5] = compound: CCN1CCN(Cc2ccc(Nc3ncc(F)c(-c4cc(F)c5nc(C)n(C(C)C)c5c4)n3)nc2)CC1; experiment: as above
[6] = compound: CN1CC[C@H](c2c(O)cc(O)c3c(=O)cc(-c4ccccc4Cl)oc23)[C@H](O)C1 [Flavopiridol]; experiment: as above
[7] = compound: CC(=O)c1c(C)c2cnc(Nc3ccc(N4CCN(CCOCCOCCOCCNC(=O)COc5cccc6c5C(=O)N(C5CCC(=O)NC5=O)C6=O)CC4)cn3)nc2n(C2CCCC2)c1=O [BSJ-03-123]; experiment: as above
[8] = compound: CN(C)C/C=C/C(=O)Nc1ccc(C(=O)Nc2cccc(Nc3ncc(Cl)c(-c4c[nH]c5ccccc45)n3)c2)cc1 [THZ1]; experiment: as above
[9] = compound: C[C@@H]1COCCN1c1cc(C2([S@](C)(=N)=O)CC2)nc(-c2cc[nH]c3nccc2-3)n1 [AZD6738]
[10] = compound: CN(C)C/C=C/C(=O)Nc1ccc(O[C@@H]2CCC[C@@H](Nc3ncc(Cl)c(-c4c[nH]c5ccccc45)n3)C2)cc1 [BSJ-01-175]
[11] = compound: O=C(CCCCCCC(=O)Nc1ccccc1)NO [Vorinostat]
[12] = compound: CNC(=O)c1cccc(-c2ccc3c(N4CCOC[C@@H]4C)nc(N4CCOC[C@@H]4C)nc3n2)c1 [AZD2014]
[13] = compound: O=C1NC(=O)[C@@H](c2cn3c4c(cccc24)CCC3)[C@@H]1c1c[nH]c2ccccc12 [Tivantinib/ARQ197]
[14] = compound: NC(=O)Nc1cc(-c2cccc(F)c2)sc1C(=O)N[C@H]1CCCNC1 [AZD7762]
[15] = compound: COc1ccc2c(c1)[C@]1(C[C@H]1c1ccc3c(/C=C/c4ccc(CN5C[C@@H](C)O[C@@H](C)C5)cc4)n[nH]c3c1)C(=O)N2
[16] = compound: CCN1CCN(Cc2ccc(Nc3ncc(F)c(-c4cc(F)c5nc(C)n(C(C)C)c5c4)n3)nc2)CC1
[17] = compound: CC(=O)Nc1cccc(-n2c(=O)n(C3CC3)c(=O)c3c(Nc4ccc(I)cc4F)n(C)c(=O)c(C)c32)c1
[18] = compound: CCC1=CN=CN=C1N2CCN(CC2)CC3=NC4=C(N3)C=C(C=C4)C(F)(F)F
[19] = compound: CC(C)NC[C@@H](C(=O)N1CCN(c2ncnc3c2[C@H](C)C[C@H]3O)CC1)c1ccc(Cl)cc1 [Ipatasertib/GDC0068]
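For GR50, 72 h in this document: breast cancer and non-malignant breast epithelial cell lines, Deep Dye Drop or Dye Drop imaging, nine half-log doses, GR normalized to time-zero plates and DMSO-only controls.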

## SUM159
[1]; 0.0003162 µM
  increase in dead-cell fraction: -0.005
[1]; 0.001 µM
  increase in dead-cell fraction: -0.0025
[1]; 0.003162 µM
  increase in dead-cell fraction: -0.0041
[1]; 0.01 µM
  increase in dead-cell fraction: -0.0075
[1]; 0.03162 µM
  increase in dead-cell fraction: -0.0087
[1]; 0.1 µM
  increase in dead-cell fraction: -0.0118
[1]; 0.3162 µM
  increase in dead-cell fraction: -0.0133
[1]; 1 µM
  increase in dead-cell fraction: -0.01
[1]; 3.162 µM
  increase in dead-cell fraction: -0.004
[2]; 0.0001 µM
  increase in dead-cell fraction: -0.0009
[2]; 0.0003162 µM
  increase in dead-cell fraction: -0.0008
[2]; 0.001 µM
  increase in dead-cell fraction: -0.0012
[2]; 0.003162 µM
  increase in dead-cell fraction: 0.0013
[2]; 0.01 µM
  increase in dead-cell fraction: 0.0076
[2]; 0.03162 µM
  increase in dead-cell fraction: 0.299
[2]; 0.1 µM
  increase in dead-cell fraction: 0.226
[2]; 0.3162 µM
  increase in dead-cell fraction: 0.238
[2]; 1 µM
  increase in dead-cell fraction: 0.246
[3]; 0.0003162 µM
  increase in dead-cell fraction: 0
[3]; 0.001 µM
  increase in dead-cell fraction: 0.0001
[3]; 0.003162 µM
  increase in dead-cell fraction: -0.0023
[3]; 0.01 µM
  increase in dead-cell fraction: -0.0027
[3]; 0.03162 µM
  increase in dead-cell fraction: -0.009
[3]; 0.1 µM
  increase in dead-cell fraction: -0.0094
[3]; 0.3162 µM
  increase in dead-cell fraction: -0.0078
[3]; 1 µM
  increase in dead-cell fraction: -0.0049
[3]; 3.162 µM
  increase in dead-cell fraction: -0.0004
[4]; 0.001 µM
  increase in dead-cell fraction: -0.0013
[4]; 0.003162 µM
  increase in dead-cell fraction: 0.0006
[4]; 0.01 µM
  increase in dead-cell fraction: 0.0082
[4]; 0.03162 µM
  increase in dead-cell fraction: 0.013
[4]; 0.1 µM
  increase in dead-cell fraction: 0.0057
[4]; 0.3162 µM
  increase in dead-cell fraction: 0.0121
[4]; 1 µM
  increase in dead-cell fraction: 0.0033
[4]; 3.162 µM
  increase in dead-cell fraction: 0.0075
[4]; 10 µM
  increase in dead-cell fraction: 0.0212
[5]; 0.001 µM
  increase in dead-cell fraction: -0.0002
[5]; 0.003162 µM
  increase in dead-cell fraction: -0.0043
[5]; 0.01 µM
  increase in dead-cell fraction: -0.0052
[5]; 0.03162 µM
  increase in dead-cell fraction: -0.0042
[5]; 0.1 µM
  increase in dead-cell fraction: 0.0006
[5]; 0.3162 µM
  increase in dead-cell fraction: 0.0029
[5]; 1 µM
  increase in dead-cell fraction: 0.0118
[5]; 3.162 µM
  increase in dead-cell fraction: 0.0126
[5]; 10 µM
  increase in dead-cell fraction: 0.447
[6]; 0.0001 µM
  increase in dead-cell fraction: -0.0034
[6]; 0.0003162 µM
  increase in dead-cell fraction: -0.0008
[6]; 0.001 µM
  increase in dead-cell fraction: -0.0034
[6]; 0.003162 µM
  increase in dead-cell fraction: -0.0003
[6]; 0.01 µM
  increase in dead-cell fraction: -0.0024
[6]; 0.03162 µM
  increase in dead-cell fraction: 0.012
[6]; 0.1 µM
  increase in dead-cell fraction: 0.0436
[6]; 0.3162 µM
  increase in dead-cell fraction: 0.205
[6]; 1 µM
  increase in dead-cell fraction: 0.208
[7]; 0.001 µM
  increase in dead-cell fraction: -0.0023
[7]; 0.003162 µM
  increase in dead-cell fraction: 0.0027
[7]; 0.01 µM
  increase in dead-cell fraction: -0.003
[7]; 0.03162 µM
  increase in dead-cell fraction: 0.0063
[7]; 0.1 µM
  increase in dead-cell fraction: 0.0055
[7]; 0.3162 µM
  increase in dead-cell fraction: 0.0076
[7]; 1 µM
  increase in dead-cell fraction: 0.0134
[7]; 3.162 µM
  increase in dead-cell fraction: 0.0322
[7]; 10 µM
  increase in dead-cell fraction: 0.28
[8]; 0.0001 µM
  increase in dead-cell fraction: -0.005
[8]; 0.0003162 µM
  increase in dead-cell fraction: -0.0055
[8]; 0.001 µM
  increase in dead-cell fraction: -0.0004
[8]; 0.003162 µM
  increase in dead-cell fraction: -0.0006
[8]; 0.01 µM
  increase in dead-cell fraction: 0.001
[8]; 0.03162 µM
  increase in dead-cell fraction: 0.0024
[8]; 0.1 µM
  increase in dead-cell fraction: 0.0084
[8]; 0.3162 µM
  increase in dead-cell fraction: 0.0412
[8]; 1 µM
  increase in dead-cell fraction: 0.212
[9]
  GR50, 72 h: 9.98 µM
[10]
  GR50, 72 h: 0.0681 µM
[11]
  GR50, 72 h: 3.28 µM
[12]
  GR50, 72 h: 0.176 µM
[13]
  GR50, 72 h: 0.408 µM
[14]
  GR50, 72 h: 0.834 µM
[15]
  GR50, 72 h: 0.00426 µM
[16]
  GR50, 72 h: 0.565 µM
[17]
  GR50, 72 h: 0.0316 µM
[18]
  GR50, 72 h: > 10 µM
[19]
  GR50, 72 h: > 10 µM

— the supplement of paper PMC9663587
